Laboratory results published in patent US7511137B2, “Stereoisomers and stereoisomeric mixtures of 1-(2,4-pyrimidinediamino)-2-cyclopentanecarboxamide synthetic intermediates” (Rigel Pharmaceuticals, Inc., priority 2003, dated 2009).
Entries after “also recorded” stand apart in the source; their conditions may differ. Read-outs that look alike come from different tables or passages of the source.

Assays:
Type in all cases: cell-based
HCT116 (colon/p53wt) = assay: in vitro antiproliferation assay, HCT116; settings: Homo sapiens, HCT-116; HCT116 colon/p53wt tumor cell line
Experimental: (§1) The four stereoisomers isomers of (1S, 2R)-1-(2,4-pyrimidinediamino)-2-cyclopentanecarboxamide (1), (2), (3) and (4) were prepared as described in Examples 1-4. The racemic mixture of the cis compound was prepared as described herein. The IC50 values of various compounds against different tumor cell lines were determined using standard in vitro antiproliferation assays. The tumor cell lines tested were as follows: A549 (lung); H1299 (lung); DU145 (prostate); HCT116 (colon/p53wt); and mirapaca.

[1] = system: a variety of tumor cell lines; assay: conventional antiproliferative assays, result in words
Experimental: Accordingly, stereoisomers of related 1-(2,4-pyrimidinediamino)-2-cyclopentanecarboxamides are expected to have analogous activity in antiproliferative assays.
as §1

A549 (lung) = assay: in vitro antiproliferation assay, A549; settings: Homo sapiens; A549 lung tumor cell line
Experimental: as §1

H1299 (lung) = assay: in vitro antiproliferation assay, H1299; settings: Homo sapiens, NCI-H1299; H1299 lung tumor cell line
Experimental: as §1

DU145 (prostate) = assay: in vitro antiproliferation assay, DU145; settings: Homo sapiens, DU-145; DU145 prostate tumor cell line
Experimental: as §1

**Q.** Which IC50 (HCT116 (colon/p53wt)) does the source give for `Cc1cc(Nc2ncc(F)c(N[C@@H]3CCC[C@@H]3C(N)=O)n2)ccc1N1CCN(C)CC1` [Compound 1, (1S, 2R)-1-(2,4-pyrimidinediamino)-2-cyclopentanecarboxamide] here?
**A.** Its IC50 is less than 0.1 µM.

**Q.** And the “antiproliferative activity (in words)” value [1]?
**A.** Its value is “antiproliferative activity; also recorded: active”.

**Q.** Which IC50 (A549 (lung)) does the source give for `Cc1cc(Nc2ncc(F)c(N[C@H]3CCC[C@@H]3C(N)=O)n2)ccc1N1CCN(C)CC1` [Compound 3, (1S, 2S)-1-(2,4-pyrimidinediamino)-2-cyclopentanecarboxamide] here?
**A.** The IC50 was greater than 20 µM.

**Q.** What about the IC50 (H1299 (lung)) of the same molecule?
**A.** Its IC50 is greater than 20 µM.

**Q.** What about the “antiproliferative activity (in words)” value [1] of the same molecule?
**A.** Its value is “antiproliferative activity”.

**Q.** And the “antiproliferative activity (in words)” value ([1]; listed as trans (1S, 2S))?
**A.** Its value is “inactive”.

**Q.** What does the source list for `Cc1cc(Nc2ncc(F)c(N[C@@H]3CCC[C@H]3C(N)=O)n2)ccc1N1CCN(C)CC1` [Compound 4, (1R, 2R)-1-(2,4-pyrimidinediamino)-2-cyclopentanecarboxamide]?
**A.** IC50 (A549 (lung)): < 5 µM; IC50 (H1299 (lung)): < 5 µM; IC50 (DU145 (prostate)): < 5 µM; IC50 (HCT116 (colon/p53wt)): < 5 µM; antiproliferative activity (in words) [1]: active

**Q.** Which results are given for `Cc1cc(Nc2ncc(F)c(N[C@H]3CCC[C@H]3C(N)=O)n2)ccc1N1CCN(C)CC1` [Compound 2, (1R, 2S)-1-(2,4-pyrimidinediamino)-2-cyclopentanecarboxamide]?
**A.** IC50 (A549 (lung)): < 5 µM; IC50 (H1299 (lung)): < 10 µM; antiproliferative activity (in words) [1]: antiproliferative activity; also recorded: active
